pIC50: −log10 of the molar value.
Assays:
[1] = Plasma protein binding (equilibrium dialysis), human; type: in vitro ADME; details: pH 7.4, 37° C.
Procedure: Below is provided the procedure for measuring plasma protein binding (using an equilibrium dialysis method). 745 μL of plasma was transferred into a 2 ml micro centrifuge tube. To that 5 μL of Compound A1 (150 μM) was added. Samples were mixed in the table top vortexer for 2 minutes. 50 μL plasma (n=2) was transferred in a pre-labeled 1.5 mL micro centrifuge tube treated as 0 hour sample.
The remaining 650 μL plasma sample were incubated for 30 minutes at 37° C. in a water bath. After 30 minute incubation, 50 μL plasma (n=2) was removed in a pre-labelled 1.5 mL micro centrifuge tube treated as 0.5 hour sample. 200 μL of the plasma sample (n=2) was transferred into the sample chamber which was indicated by the red ring. The red insert was placed into the base plate and 350 μL of buffer was transferred into the buffer chamber. Plates were incubated at 37° C. at approximately 100 RPM on an orbital shaker or 20 RPM on an up-and-down shaker for 4 hours. 50 μL of post dialysis-sample from the buffer and the plasma chambers were transferred into a pre-labelled micro centrifuged tube. 50 μL of plasma was added to the buffer samples and an equal volume of buffer (KH2PO4 Buffer pH 7.4) to the collected plasma samples. 150 μL of methanol containing internal standard (Tolbutamide 250 ng/ml) was added to precipitate the protein and release compound. […]

PI3K beta = target: T1, PI3K beta (Mus musculus, UniProt Q8BTI9); experiment: Assay 4A2: LPA induced AktS473 phosphorylation in 3T3 fibroblasts; type: cell-based; details: LPA 5 μM, read-out: Cellular IC50 PI3K beta (LPA induced pAKT in 3T3 fibroblasts)
T1 construct: endogenous in cells; host or cells: 3T3 fibroblasts
Procedure: The objective of this study was to determine the effect of Compound A1 on PI3Kβ kinase mediated LPA induced AktS473 phosphorylation in 3T3 fibroblasts.
3T3 cells were treated with desired concentrations of the test compound for 15 minutes. 1 ml of 2× LPA was added such that the final concentration was 5 μM and incubated for 5 minutes.
Media was discarded and washed with 1 ml of ice-cold 1× PBS.
250 μl of cell lysis buffer was added and incubated on ice for 30 minutes.
Samples were centrifuged and supernatant was maintained at −80° C. until analysis.
Samples were analyzed by Western Blotting using pAKT (S473) as the primary and anti-rabbit IgG-HRP as a secondary antibody.
Intensity of the bands was determined using ImageJ 1.42q (NIH, USA) and normalized to Actin (loading control). Data was plotted using GraphPad Prism (Version 5.02).

T1 sequence (Q8BTI9 whole entry): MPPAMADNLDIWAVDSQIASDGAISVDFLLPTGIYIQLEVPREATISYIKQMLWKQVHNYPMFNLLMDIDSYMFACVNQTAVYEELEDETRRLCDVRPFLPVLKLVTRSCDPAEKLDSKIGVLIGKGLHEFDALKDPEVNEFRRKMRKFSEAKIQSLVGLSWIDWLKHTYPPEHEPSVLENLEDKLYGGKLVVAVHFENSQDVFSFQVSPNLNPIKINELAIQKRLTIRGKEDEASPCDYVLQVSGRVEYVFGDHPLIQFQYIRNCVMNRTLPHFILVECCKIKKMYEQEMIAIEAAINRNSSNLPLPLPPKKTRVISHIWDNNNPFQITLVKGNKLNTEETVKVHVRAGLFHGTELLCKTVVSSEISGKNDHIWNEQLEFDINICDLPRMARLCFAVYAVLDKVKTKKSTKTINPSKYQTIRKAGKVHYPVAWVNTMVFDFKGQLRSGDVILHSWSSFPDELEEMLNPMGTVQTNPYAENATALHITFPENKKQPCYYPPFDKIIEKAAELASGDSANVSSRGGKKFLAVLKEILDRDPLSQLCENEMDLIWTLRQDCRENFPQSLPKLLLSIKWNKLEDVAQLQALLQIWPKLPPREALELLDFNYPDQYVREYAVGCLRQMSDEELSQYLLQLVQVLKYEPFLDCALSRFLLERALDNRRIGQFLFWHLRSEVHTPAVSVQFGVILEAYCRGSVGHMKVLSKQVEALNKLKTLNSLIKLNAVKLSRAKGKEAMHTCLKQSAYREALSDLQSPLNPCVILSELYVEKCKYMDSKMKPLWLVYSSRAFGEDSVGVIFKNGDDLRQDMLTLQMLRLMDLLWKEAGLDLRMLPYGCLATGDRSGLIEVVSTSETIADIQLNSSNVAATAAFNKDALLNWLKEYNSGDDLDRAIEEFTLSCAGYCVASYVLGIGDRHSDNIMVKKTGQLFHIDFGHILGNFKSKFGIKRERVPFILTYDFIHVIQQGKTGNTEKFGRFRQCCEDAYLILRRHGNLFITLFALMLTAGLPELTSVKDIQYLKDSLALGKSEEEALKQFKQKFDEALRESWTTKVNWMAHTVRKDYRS
T1 sequence (P26450 whole entry partner): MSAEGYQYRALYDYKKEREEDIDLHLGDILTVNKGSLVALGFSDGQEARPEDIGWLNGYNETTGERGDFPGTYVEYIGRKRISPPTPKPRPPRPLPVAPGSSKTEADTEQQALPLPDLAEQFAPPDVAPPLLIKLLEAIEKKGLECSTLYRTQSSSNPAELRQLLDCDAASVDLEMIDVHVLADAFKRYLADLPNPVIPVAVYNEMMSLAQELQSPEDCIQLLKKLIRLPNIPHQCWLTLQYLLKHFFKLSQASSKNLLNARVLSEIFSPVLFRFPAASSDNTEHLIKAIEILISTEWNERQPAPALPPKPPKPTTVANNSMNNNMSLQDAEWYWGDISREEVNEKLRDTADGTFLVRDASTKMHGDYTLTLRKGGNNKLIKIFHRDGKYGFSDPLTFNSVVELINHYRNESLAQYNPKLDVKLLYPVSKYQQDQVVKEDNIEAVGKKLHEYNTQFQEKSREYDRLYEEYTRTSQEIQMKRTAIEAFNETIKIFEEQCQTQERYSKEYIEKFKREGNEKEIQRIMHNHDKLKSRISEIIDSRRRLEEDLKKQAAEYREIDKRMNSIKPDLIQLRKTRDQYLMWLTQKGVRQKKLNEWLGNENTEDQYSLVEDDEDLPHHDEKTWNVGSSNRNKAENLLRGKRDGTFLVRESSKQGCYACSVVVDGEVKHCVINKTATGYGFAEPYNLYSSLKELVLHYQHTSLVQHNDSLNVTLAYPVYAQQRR

Compound: COc1ccc(-c2nn([C@@H](C)c3oc4cccc(F)c4c(=O)c3-c3cccc(F)c3)c3ncnc(N)c23)cc1NS(C)(=O)=O [Compound A1, (S)—N-(5-(4-amino-1-(1-(5-fluoro-3-(3-fluorophenyl)-4-oxo-4H-chromen-2-yl)ethyl)-1H-pyrazolo[3,4-d]pyrimidin-3-yl)-2-methoxyphenyl)methanesulfonamide]
- fraction unbound at 4 h, 1 μM [1]: 0.0276
- pIC50 (PI3K beta): 5.88
